Reference: patent US7285555B2, “6-aryl-7-halo-imidazo[1,2-a]pyrimidines as anticancer agents” (Wyeth Holdings Corporation, priority 2003, dated 2007)

Tests used:
[1] = tested on: COLO 205 cells; test: MTS cytotoxicity test procedure with COLO 205 cells; assay type: cell-based; conditions: Homo sapiens, 72 h, MTS assay, three days of culture
Protocol: The MTS assay, which is sold in kit form by Promega (Madison, Wis.; CellTiter 96 AQueous Non-Radioactive Cell Proliferation Assay), is based on the conversion by viable cells, but not by dead cells, of the tetrazolium salt, MTS (3-(4,5-dimethylthiazol-2-yl)-5-(3-carboxymethoxyphenyl)-2-(4-sulphophenyl)-2H-tetrazolium, inner salt), into a water-soluble colored formazan which is detected by spectrophotometry. Compounds are tested at nine concentrations, in order to determine IC50 values. For the test procedure, cells are harvested by trypsinization (or, in the case of non-adherent cells, by simple resuspension), washed, counted and distributed to wells of 96-well flat-bottom microtiter plates at 1000 cells per well in 200 μL of medium. In addition, one row of wells on a separate plate receives cells as above (“time 0” plate). All plates are incubated at 370 in humidified 5% CO2 in air for about 24 hr.
On day 2, compounds for test are diluted and added to wells. Compounds are dissolved in DMSO at 10 mg/mL. For each compound, nine serial 2-fold dilutions are prepared in DMSO. Ten μL of each dilution in DMSO is transferred to 100 μL of medium, mixed well, and then 5 μL of this dilution is transferred in quadruplicate to wells containing cells. The final high concentration of each compound is typically 1-5 μM. Plates are returned to the incubator for three days. At the time of drug addition to the experimental plates, the MTS assay is run on the “time 0” plate. This gives the “time 0 MTS value” which is related to the number of viable cells per well at the time of drug addition.
After three days of culture with test compounds (day 5 overall), the MTS assay is done on all wells of the experimental plates. The absorbance values of the quadruplicate sample wells are averaged and divided by the average of the “time 0” values. The average of control wells without drug, divided by the average “time 0” value, gives the maximal relative increase in MTS color yield due to cell growth during the final three days of culture. The average of control wells with high drug concentration, divided by the “time 0” value, gives the minimal relative color yield for cells that were completely killed. The nine values for each compound are plotted against concentration, and the concentration that produces a relative color yield half way between the maximum and minimum is taken as the IC50 value.
COLO 205 is a human colon carcinoma cell line that is used for comparative testing of the examples of this invention and several reference compounds (Table 1). This line is sensitive to paclitaxel and vincristine.

[2] = tested on: KB cells; test: SRB cytotoxicity test procedure with KB cells; assay type: cell-based; conditions: Homo sapiens, SRB assay, means of 2 independent experiments
Text: Human cancer cell lines, unless otherwise noted, are obtained from the American Type Culture Collection (Rockville, Md.). […]
The SRB standard cytotoxicity assay is done according to previously reported methods (Discafani, C. M., Carroll, M. L., Floyd Jr., M. B. F., Hollander, I. J., Husain, Z., Johnson, B. D., Kitchen, D., May, M. K., Malo, M. S., Minnick Jr., A. A., Nilakantan, R., Shen, R., Wang Y-F., Wissner, A., Greenberger, L. M. Irreversible inhibition of epidermal growth factor receptor tyrosine kinase with in vivo activity by N-[4-[3-bromophenyl)amino]-6-quinaxolinyl]-2-butynamide (CL-387,785). […] Absorbance is read on a Victor V multi-label plate reader (Perkin Elmer, Gaithersburg, Md.). […]

[3] = tested on: KB-8-5 cells; test: SRB cytotoxicity test procedure with KB-8-5 cells; assay type: cell-based, human; conditions: SRB assay
Text: (§1) Human cancer cell lines, unless otherwise noted, are obtained from the American Type Culture Collection (Rockville, Md.). The following drug-sensitive parental cell lines, and their derived drug-resistant counterparts, are obtained from the originators as listed: (a) S1 (parental line from a subclone of human colon carcinoma line LS174T) and derived S1-M1-3.2 (herein called S1-M1) which expresses the MXR drug transporter protein, are provided by Dr. L. Greenberger, Wyeth Research (Rabindran, S. K., He, H., Singh, M., Brown, E., Collins, K. I., Annable, T., and Greenberger, L. M. Reversal of a novel multidrug resistance mechanism in human colon carcinoma cells by fumitremorgin C. Cancer Res., 58: 5850-5858,1998); (b) parental HL-60 human promyelocytic leukemia line and derived HL-60/ADR, which expresses the MRP1 drug transporter protein, are provided by Dr. M. Center, University of Kansas (McGrath, T., and Center, M. S. Adriamycin resistance in HL60 cells in the absence of detectable P-glycoprotein. Biochem. Biophys. […] J. Biol. Chem., 261: 7762-7770, 1986) via Dr. L. Greenberger, Wyeth Research.
The SRB standard cytotoxicity assay is done according to previously reported methods (Discafani, C. M., Carroll, M. L., Floyd Jr., M. B. F., Hollander, I. J., Husain, Z., Johnson, B. D., Kitchen, D., May, M. K., Malo, M. S., Minnick Jr., A. A., Nilakantan, R., Shen, R., Wang Y-F., Wissner, A., Greenberger, L. M. Irreversible inhibition of epidermal growth factor receptor tyrosine kinase with in vivo activity by N-[4-[3-bromophenyl)amino]-6-quinaxolinyl]-2-butynamide (CL-387,785). Biochem. Pharmacol., 57: 917-925, 1999). Briefly, cells are plated in 100 μL of medium in 96-well flat-bottom microtiter plates in the morning of day 1 and allowed to adhere to the plates for 2-6 hr. Compounds are serially diluted into medium as 2× stocks and 100 μL of these stocks are added to cells in duplicate. Compounds are incubated with cells for 3 days. At the end of the incubation period the sulforhodamine B (SRB) assay, which measures protein content as an assessment of cell survival, is performed as described previously (Skehan, P., Storeng, R., Scudiero, D., Monks, A., McMahon, J., Vistica, D., Warren, J. T., Bokesch, H., Kenney, S., Boyd, M. R. New calorimetric cytotoxicity assay for anticancer-drug screening. J. Natl. Cancer Inst., 82:1107-1112, 1990) with some modifications. Medium is gently decanted from plates and replaced with 200 μL per well of cold serum-free medium containing a final concentration of 10% trichloroacetic acid. The plates are incubated for 1 hr at 40, washed 5 times in cold distilled water, and air-dried overnight. […] Absorbance is read on a Victor V multi-label plate reader (Perkin Elmer, Gaithersburg, Md.). […]

[4] = tested on: KB-V1 cells; test: SRB cytotoxicity test procedure with KB-V1 cells; assay type: cell-based, human; conditions: SRB assay
Text: as §1
The SRB standard cytotoxicity assay is done according to previously reported methods (Discafani, C. M., Carroll, M. L., Floyd Jr., M. B. F., Hollander, I. J., Husain, Z., Johnson, B. D., Kitchen, D., May, M. K., Malo, M. S., Minnick Jr., A. A., Nilakantan, R., Shen, R., Wang Y-F., Wissner, A., Greenberger, L. M. Irreversible inhibition of epidermal growth factor receptor tyrosine kinase with in vivo activity by N-[4-[3-bromophenyl)amino]-6-quinaxolinyl]-2-butynamide (CL-387,785). Biochem. Pharmacol., 57: 917-925, 1999). Briefly, cells are plated in 100 μL of medium in 96-well flat-bottom microtiter plates in the morning of day 1 and allowed to adhere to the plates for 2-6 hr. Compounds are serially diluted into medium as 2× stocks and 100 μL of these stocks are added to cells in duplicate. Compounds are incubated with cells for 3 days. At the end of the incubation period the sulforhodamine B (SRB) assay, which measures protein content as an assessment of cell survival, is performed as described previously (Skehan, P., Storeng, R., Scudiero, D., Monks, A., McMahon, J., Vistica, D., Warren, J. T., Bokesch, H., Kenney, S., Boyd, M. R. New calorimetric cytotoxicity assay for anticancer-drug screening. J. Natl. Cancer Inst., 82:1107-1112, 1990) with some modifications. Medium is gently decanted from plates and replaced with 200 μL per well of cold serum-free medium containing a final concentration of 10% trichloroacetic acid. The plates are incubated for 1 hr at 40, washed 5 times in cold distilled water, and air-dried overnight. The fixed cells are stained for 10 min with 80 μL per well of 0.04% SRB solution prepared in 1% glacial acetic acid. Staining solution is decanted, plates are washed 5 times in 1% glacial acetic acid, and then air-dried until completely dry. Stained cell product is dissolved in 150 μL per well of 10 mM Trizma Base with shaking for 20 minutes. Absorbance is read on a Victor V multi-label plate reader (Perkin Elmer, Gaithersburg, Md.).
The KB lines express different amounts of the P-glycoprotein (MDR1) membrane pump which produces resistance to the action of many cytotoxic compounds, including paclitaxel and vincristine. The parental KB line expresses no P-glycoprotein, KB-8-5 expresses moderate levels of the protein, and KB-V1 expresses very high levels.

- melting point: 52 to 55 °C
SMILES: CN(C)CCCOc1cc(F)c(-c2c(Cl)nc3nccn3c2NCC(F)(F)F)c(F)c1 [Example 4, 7-chloro-6-{4-[3-(dimethylamino)propoxy]-2,6-difluorophenyl}-N-(2,2,2-trifluoroethyl)imidazo[1,2-a]pyrimidin-5-amine]
- IC50 [1]: 0.088 µM
- IC50 [2]: 0.024 µM
- IC50 ([3]; Homo sapiens, KB 8.5 cells, means of 2 independent experiments): 0.059 µM
- Ratio 8.5/KB ([3]; IC50 on KB 8.5 cells/IC50 on KB cells): 2.5
- IC50 ([4]; Homo sapiens, KB-V1, KB VI cells, means of 2 independent experiments): 2.39 µM
- Ratio VI/KB ([4]; IC50 on KB VI cells/IC50 on KB cells): 99
